Data from US20080200334A1, “Method For Enhancing The Effectiveness Of Ethaboxam” (BASF Aktiengesellschaft, priority 2004, published 2008).
Like-named read-outs stand apart in the source and are kept apart here.

Experiments:
Pyricularia oryzae = format: cell-based
Plasmopara viticola [1] = assay: Use Example 1: peronospora of grapevines, greenhouse, 7 days of protective application; format: in vivo; details: grapevine leaves sprayed 7 days before inoculation
Description: The active compounds were prepared jointly or separately as a stock solution with 25 mg of active compound which was made up to 10 ml using a mixture of acetone and/or DMSO and the emulsifier Uniperol® EL (wetting agent having emulsifying and dispersing action based on ethoxylated alkylphenols) in a volume ratio of solvent/emulsifier of 99 to 1. The mixture was then made up with water to 100 ml. This stock solution was diluted with the solvent/emulsifier/water mixture described to the concentration of active compounds stated below.
The active compounds pyraclostrobin, famoxadone, fluazinam and zoxamide were used as commercially available formulations.
The visually determined percentages of infected leaf areas were converted into efficacies in % of the untreated control:
The efficacy (E) is calculated as follows using Abbot's formula:
An efficacy of 0 means that the infection level of the treated plants corresponds to that of the untreated control plants; an efficacy of 100 means that the treated plants were not infected.
The expected efficacies of mixtures of active compounds were determined using Colby's formula (Colby, S. R. “Calculating synergistic and antagonistic responses of herbicide combinations”, Weeds, 15, 20-22, 1967) and compared with the observed efficacies.
E=x+y−x·y/100 • E expected efficacy, expressed in % of the untreated control, when using the mixture of the active compounds A and B at the concentrations a and b • x efficacy, expressed in % of the untreated control, when using the active compound A at the concentration a • y efficacy, expressed in % of the untreated control, when using the active compound B at the concentration b
Effectiveness Against Peronospora of Grapevines Caused by Plasmopara viticola at 7 days of Protective Application
Leaves of potted vines were sprayed to runoff point with an aqueous suspension having the concentration of active compound given below. To be able to assess the persistency of the substances, the plants were, after the spray coating had dried on, placed in a greenhouse for 7 days. Only then were the leaves inoculated with an aqueous zoospore suspension of Plasmopara viticola. The grapevines were then initially placed in a water-vapor-saturated chamber at 24° C. for 48 hours and then in a greenhouse at temperatures between 20 and 30° C. for 5 days. After this period of time the plants were, to promote sporangiophore eruption, again placed in a humid chamber for 16 hours. The extent of the development of the infection on the undersides of the leaves was then determined visually.

Phytophthora infestans = format: in vivo; details: tomato leaves sprayed 3 days before inoculation, rated after 6 days
Botrytis cinerea = assay: Use Example 4: gray mold, microtiter test; format: cell-based; details: day 7 after inoculation, 405 nm
Septoria tritici = assay: Use Example 6: Septoria speckled leaf blotch, microtiter test; format: cell-based; details: day 7 after inoculation, 405 nm
Plasmopara viticola [2] = format: in vivo

**Q.** How did the “Observed effect (%)” value (Pyricularia oryzae; 0.5 ppm) turn out when CC1(c2ccc(Oc3ccccc3)cc2)OC(=O)N(Nc2ccccc2)C1=O (racemic) [famoxadone II-11, (RS)-3-anilino-5-methyl-5-(4-phenoxyphenyl)-1,3-oxazolidine-2,4-dione] was run?
**A.** Its value is 64%.

**Q.** How did the “Observed effect (%)” value (Plasmopara viticola [1]; 4 ppm) turn out when CCNC(=O)NC(=O)/C(C#N)=N/OC [cymoxanil II-3, cymoxanil] was run?
**A.** The value was 0%.

**Q.** Which “Observed effect (%)” value (Plasmopara viticola [1]; 4 ppm) does the source give for COc1ccc(C(=CC(=O)N2CCOCC2)c2ccc(Cl)cc2)cc1OC [dimethomorph II-2, 3-(4-chlorophenyl)-3-(3,4-dimethoxyphenyl)-1-morpholin-4-ylpropenone] here?
**A.** Its value is 0%.

**Q.** And the “Observed effect (%)” value (Phytophthora infestans; 4 ppm)?
**A.** The value was 0%.

**Q.** And the “Observed effect (%)” value (Phytophthora infestans; 16 ppm)?
**A.** The value was 22%.

**Q.** And the “Observed effect (%)” value (Botrytis cinerea; 63 ppm)?
**A.** The value was 9%.

**Q.** What about the “Observed effect (%)” value (Pyricularia oryzae; 4 ppm) of the same molecule?
**A.** Its value is 6%.

**Q.** For N#Cc1sc2c(=O)c3ccccc3c(=O)c=2sc1C#N [dithianon II-15, 5,10-dioxo-5,10-dihydronaphtho[2,3-b][1,4]dithiin-2,3-dicarbonitrile], which “Observed effect (%)” value (Septoria tritici; 0.125 ppm) is on record?
**A.** Its value is 35%.

**Q.** CCNc1nc(CC)c(C(=O)NC(C#N)c2cccs2)s1 (centres unmarked) [ethaboxam I, N-(cyano-2-thienylmethyl)-4-ethyl-2-(ethylamino)-5-thiazolecarboxamide] was tested. Which “Observed effect (%)” value (Plasmopara viticola [1]; 1 ppm) did it give?
**A.** Its value is 0%.

**Q.** What about the “Observed effect (%)” value (Plasmopara viticola [1]; 4 ppm) of the same molecule?
**A.** Its value is 22%.

**Q.** What about the “Observed effect (%)” value (Plasmopara viticola [1]; 16 ppm) of the same molecule?
**A.** Its value is 44%.

**Q.** And the “Observed effect (%)” value (Plasmopara viticola [2]; 1 ppm)?
**A.** Its value is 61%.

**Q.** What about the “Observed effect (%)” value (Phytophthora infestans; 16 ppm) of the same molecule?
**A.** The value was 33%.

**Q.** What about the “Observed effect (%)” value (Botrytis cinerea; 1 ppm) of the same molecule?
**A.** Its value is 0%.

**Q.** What about the “Observed effect (%)” value (Botrytis cinerea; 2 ppm) of the same molecule?
**A.** The value was 0%.

**Q.** What about the “Observed effect (%)” value (Botrytis cinerea; 4 ppm) of the same molecule?
**A.** Its value is 0%.

**Q.** What about the “Observed effect (%)” value (Botrytis cinerea; 32 ppm) of the same molecule?
**A.** Its value is 0%.

**Q.** What about the “Observed effect (%)” value (Botrytis cinerea; 63 ppm) of the same molecule?
**A.** The value was 11%.

**Q.** What about the “Observed effect (%)” value (Pyricularia oryzae; 0.125 ppm) of the same molecule?
**A.** Its value is 0%.

**Q.** What about the “Observed effect (%)” value (Pyricularia oryzae; 0.25 ppm) of the same molecule?
**A.** Its value is 0%.

**Q.** What about the “Observed effect (%)” value (Pyricularia oryzae; 8 ppm) of the same molecule?
**A.** The value was 18%.

**Q.** What about the “Observed effect (%)” value (Pyricularia oryzae; 16 ppm) of the same molecule?
**A.** The value was 41%.

**Q.** And the “Observed effect (%)” value (Pyricularia oryzae; 63 ppm)?
**A.** The value was 56%.

**Q.** And the “Observed effect (%)” value (Septoria tritici; 0.125 ppm)?
**A.** Its value is 0%.

**Q.** And the “Observed effect (%)” value (Septoria tritici; 4 ppm)?
**A.** The value was 0%.

**Q.** What about the “Observed effect (%)” value (Septoria tritici; 16 ppm) of the same molecule?
**A.** The value was 0%.

**Q.** With O=[N+]([O-])c1cc(C(F)(F)F)c(Cl)c([N+](=O)[O-])c1Nc1ncc(C(F)(F)F)cc1Cl [fluazinam II-4, 3-chloro-N-[3-chloro-2,6-dinitro-4-(trifluoromethyl)phenyl]-5-(trifluoromethyl)-2-pyridinamine] as the molecule, how does the “Observed effect (%)” value (Plasmopara viticola [1]; 63 ppm) read?
**A.** The value was 22%.

**Q.** With COc1ccc(C(=CC(=O)N2CCOCC2)c2ccc(F)cc2)cc1OC [flumorph II-8, 3-(4-fluorophenyl)-3-(3,4-dimethoxyphenyl)-1-morpholin-4-ylpropenone] as the molecule, how does the “Observed effect (%)” value (Botrytis cinerea; 63 ppm) read?
**A.** Its value is 16%.

**Q.** And the “Observed effect (%)” value (Pyricularia oryzae; 16 ppm)?
**A.** Its value is 11%.

**Q.** For O=C1c2ccccc2C(=O)N1SC(Cl)(Cl)Cl [folpet II-10, folpet], which “Observed effect (%)” value (Botrytis cinerea; 1 ppm) is on record?
**A.** The value was 38%.

**Q.** What about the “Observed effect (%)” value (Pyricularia oryzae; 1 ppm) of the same molecule?
**A.** Its value is 20%.

**Q.** And the “Observed effect (%)” value (Septoria tritici; 4 ppm)?
**A.** Its value is 54%.

**Q.** How did the “Observed effect (%)” value (Botrytis cinerea; 0.5 ppm) turn out when COC(=O)N(OC)c1ccccc1COc1ccn(-c2ccc(Cl)cc2)n1 [pyraclostrobin II-6, methyl N-{2-[1-(4-chlorophenyl)-1H-pyrazol-3-yloxymethyl]phenyl}(N-methoxy)carbamate] was run?
**A.** The value was 22%.

**Q.** How did the “Observed effect (%)” value (Pyricularia oryzae) turn out when “ethyl phosphonate aluminum [fosethyl-Al II-12]” was run?
**A.** The value was 8%.

**Q.** How did the “Observed effect (%)” value (Plasmopara viticola [2]; in vivo) turn out when “manganese ethylenebis(dithiocarbamate) [maneb II-5]” was run?
**A.** Its value is 0%.

**Q.** How did the “Observed effect (%)” value (Botrytis cinerea; 4 ppm) turn out when “manganese ethylenebis(dithiocarbamate) zinc complex [mancozeb II-9]” was run?
**A.** The value was 30%.

**Q.** What about the “Observed effect (%)” value (Septoria tritici; 1 ppm) of the same molecule?
**A.** Its value is 29%.

**Q.** For “zinc ammoniate ethylenebis(dithiocarbamate) [metiram II-14]”, which “Observed effect (%)” value (Septoria tritici; 4 ppm) is on record?
**A.** Its value is 19%.
